Experiment [1] concerns p27-GFP (clone H15GFP-p27, HeLa-cell line; cervix-carcinoma). As to the kind of experiment: GFP-fluorescence per FACS in clone H15GFP-p27. The experiment is classed as cell-based, human. The note with it: GFP-fluorescence per FACS after 24 h incubation, 500 ng/ml. From the text:
Human p27cDNA (in plasmid vector CS2+) was digested with EcoR1 and BamH1, and the resulting fragment was ligated after gel purification into the vector pEGFP-N1 (Clontech) that was cut with the same restriction enzymes. Thus, a […] fusion with the GFP as contained in the pEGFP-vector was generated. The plasmid was then transfected into Hela cells, and, following selection of the cells with kanamycin, cellular clones were isolated which had the plasmid integrated stably into their chromosome. The expression of the p27EGFP proteins was confirmed using Western blots and immune precipitations for both p27 and GFP.
(§1) The following table summarizes the effects of argyrin-derivatives A to H on two cancer cell lines, H15 (cervix carcinoma) and SW-480 (colon cancer). In order to test the efficacy, a p27-GFP-clone was used.

The subject of a further experiment is H15 (cervix carcinoma). As to the kind of experiment: MIC (visual), serial dilution, H15. The conditions noted are these: minimal concentration of a serial dilution exhibiting a visual effect. The experiment is classed as cell-based, human.
From the text: as §1

A further experiment has as its system SW-480 (colon cancer). As to the kind of experiment: MIC (visual), serial dilution, SW-480. The conditions noted are these: minimal concentration of a serial dilution exhibiting a visual effect. The experiment is classed as cell-based, human.
From the text: as §1

The test system of experiment [2] is SW-480 (colon cancer cell line). As to the kind of experiment: MTT-test proliferation of SW-480. The note with it: for IC-50 SW-480: half-maximal inhibition of proliferation. The experiment is classed as cell-based, human. The method, then:
(§2) MTT assays were done as previously described (Sasse, F. et al. Argyrins, immunosuppressive cyclic peptides from myxobacteria. I. Production, isolation, physico-chemical and biological properties. J Antibiot (Tokyo) 55, 543-51 (2002)). TUNEL staining of tissue sections was performed on 10 micrometer sections which were deparafinised and treated as recommended by the manufacturer. (In Situ Cell Death Detection Kit, Fluorescein; ROCHE, Cat #11 684 795 910). Flow cytometric analysis of cultured cells was done using a Becton Dickinson fluorescence cytometer as previously described (Malek, N. P. et al. A mouse knock-in model exposes sequential proteolytic pathways that regulate p27^Kip1 in G1 and S phase. Nature 413, 323-7 (2001)). Analysis of the distribution of cells in the cell cycle and the sub-G1 fraction was done using Cell Quest software. A histone-associated-DNA-fragments ELISA was used to determine the number of apoptotic cells according to manufacturers instructions (Roche #11 774425001).
(In general: Tetrazolium dyes change colour on reduction, which living cells bring about.)

For experiment [3], the system named is mouse embryonic fibroblasts from p27^kip1 wildtype mice. As to the kind of experiment: Apoptosis (sub-G1 fraction) by flow cytometry in p27 wildtype MEF. It is filed as cell-based. The conditions noted are these: sub G1 fraction.
From the text: (§3) Next the inventors tested whether the stabilization of p27 was indeed required for the apoptosis inducing function of Argyrin A or was merely a consequence of proteasome inhibition. For this the inventors treated immortalized mouse embryonic fibroblasts from p27^kip1 wildtype or knockout mice with Argyrin A or the proteasome inhibitor bortezomib and assayed cell cycle distribution and apoptosis by flow cytometry. […] These differences in sensitivity in response to Argyrin A treatment were not due to differences in the accumulation of other proteasomal substrates in p27 wildtype and knockout cells as p53 and p21 levels increased in both cell lines in response to Argyrin A (FIG. 6B). To extend this observation to human cancer cells the inventors reduced the levels of p27^kip1 in HeLa cells using p27^kip1 specific siRNA.
(§4) The results shown are the average numbers for six independent experiments. b+d) Wildtype (b) and p27 knockout (d) MEF were treated with Argyrin A or transfected with siRNAs specific for the β1, β2 or β5 subunit of the proteasome for 24 hours. The graphs show the remaining catalytic activity of the different proteasome subunits after Argyrin A or siRNA treatment compared to an untreated control (n=3). The western blots show the expression of the β1, β2 or β5 subunit of the proteasome in proliferating cells and after treatment with siRNAs for a representative experiment. c+e) Flow cytometric measurements of the number of apoptotic cells (sub-G1 fraction) after Argyrin A or siRNA treatment in wildtype (c) or p27 knockout (E) MEF. f) HeLa cells were treated with Argyrin A or siRNA against p27 or Argyrin A and siRNA against p27 for either 24 or 48 hours.
as §2
(A flow cytometer gives signals particle by particle.)

Experiment [4] concerns mouse embryonic fibroblasts from p27^kip1 knockout mice. Briefly: Apoptosis (sub-G1 fraction) by flow cytometry in p27 knockout MEF. It is filed as cell-based. The note with it: sub G1 fraction.
From the text: as §3, §4, §2

Structures are written as SMILES. Converted amounts (≈) assume the structure as drawn. Numbered stars: 1 amine (or outer) side, 2 acyl side, 3 side chain; on linkers, the order of the positions; unused ones are H or OH. Square brackets hold non-standard residues; d marks the D form. Peptide text beside a SMILES is read from it. * marks the point of attachment. X1 = COc1cccc2[nH]c(C)c(C[C@H](N[*:1])C(=O)[*:2])c12; dAla(ψthiazole) = C[C@@H](N[*:1])c1nc(C(=O)[*:2])cs1; Trp(4-OMe) = COc1cccc2[nH]cc(C[CH](N)C(=O)O)c12; X2 = O=C(c1csc([C@@H](CO)N[*:1])n1)[*:2]; GlyΨ(Thz) = O=C(c1csc(CN[*:1])n1)[*:2]; dAbu = CC[C@@H](N)C(=O)O; Cbz = O=C(OCc1ccccc1)*; Dha = C=C(N)C(=O)O; Sar = CNCC(=O)O

For `C=C1NC(=O)[C@@H](CC)NC(=O)CNC(=O)[C@H](Cc2c[nH]c3cccc(OC)c23)NC(=O)[C@H](Cc2c[nH]c3ccccc23)NC(=O)c2csc(n2)[C@@H](C)NC(=O)CN(C)C1=O` [Argyrin B, argyrin B] (cyclo([Dha][Sar][dAla(ψthiazole)]W[Trp(4-OMe)]G[dAbu])), the “Mean of FSC-H (Log) H15 p27-GFP-clone” value in experiment [1] is recorded as 7.60. In addition, the “MIC (visual) H15” value in the experiment on H15 (cervix carcinoma) came out at 12 µg/mL (≈ 14.3 µM). Moreover, in the experiment on SW-480 (colon cancer), the “MIC (visual) SW-480” value was 12 µg/mL (≈ 14.3 µM). In addition, the IC50 in experiment [2] (Homo sapiens, SW480, half-maximal inhibition of proliferation, read-out: IC-50 SW-480) was around 0.05 µg/mL (≈ 0.0596 µM).

In the case of `C=C1NC(=O)[C@@H](C)NC(=O)CNC(=O)[C@H](Cc2c(C)[nH]c3cccc(OC)c23)NC(=O)[C@H](Cc2c[nH]c3ccccc23)NC(=O)c2csc(n2)[C@@H](C)NC(=O)CN(C)C1=O` [Argyrin C] (cyclo(W[X1]G[dA][Dha][Sar][dAla(ψthiazole)])), the “Mean of FSC-H (Log) H15 p27-GFP-clone” value in experiment [1] worked out at 7.36. Also, the “MIC (visual) H15” value in the experiment with H15 (cervix carcinoma) came to 37 µg/mL (≈ 44.1 µM). In the experiment on SW-480 (colon cancer), the “MIC (visual) SW-480” value turned out to be 37 µg/mL (≈ 44.1 µM). Further, the “IC-50 SW-480” value in experiment [2] was “Ca. 0.05 μg/ml”.

Regarding `C=C1NC(=O)[C@@H](CC)NC(=O)CNC(=O)[C@H](Cc2c(C)[nH]c3cccc(OC)c23)NC(=O)[C@H](Cc2c[nH]c3ccccc23)NC(=O)c2csc(n2)[C@@H](C)NC(=O)CN(C)C1=O` [Argyrin D] (cyclo(W[X1]G[dAbu][Dha][Sar][dAla(ψthiazole)])), in experiment [1], the “Mean of FSC-H (Log) H15 p27-GFP-clone” value was 7.69. Moreover, the “MIC (visual) H15” value with H15 (cervix carcinoma) turned out to be 12 µg/mL (≈ 14.1 µM). Further, the “MIC (visual) SW-480” value against SW-480 (colon cancer) was 37 µg/mL (≈ 43.4 µM). The “IC-50 SW-480” value in experiment [2] is recorded as “Ca. 0.05 μg/ml”.

For the compound `C=C1NC(=O)[C@@H](C)NC(=O)CNC(=O)[C@H](Cc2c[nH]c3cccc(OC)c23)NC(=O)[C@H](Cc2c[nH]c3ccccc23)NC(=O)c2csc(n2)[C@@H](CO)NC(=O)CN(C)C1=O` [Argyrin F, argyrin F] (cyclo([Dha][Sar][X2]W[Trp(4-OMe)]G[dA])), the “Mean of FSC-H (Log) H15 p27-GFP-clone” value in experiment [1] was determined as 11.24. Besides, the “MIC (visual) H15” value against H15 (cervix carcinoma) came to 0.5 µg/mL (≈ 0.595 µM). The “MIC (visual) SW-480” value with SW-480 (colon cancer) worked out at 0.2 µg/mL (≈ 0.238 µM). Also, the “IC-50 SW-480” value in experiment [2] stood at 0.05 µg/mL.

For the compound `C=C1NC(=O)C(C)NC(=O)CNC(=O)C(Cc2c[nH]c3cccc(OC)c23)NC(=O)C(Cc2c[nH]c3ccccc23)NC(=O)c2csc(n2)CNC(=O)CN(C)C1=O` (stereo not drawn) [Argyrin H] (cyclo([Dha][Sar][GlyΨ(Thz)]W[Trp(4-OMe)]GA); configuration not given here), in the experiment with H15 (cervix carcinoma), the “MIC (visual) H15” value was determined as 37 µg/mL (≈ 45.6 µM). In addition, in the experiment on SW-480 (colon cancer), the “MIC (visual) SW-480” value was found to be 37 µg/mL (≈ 45.6 µM). Further, the “IC-50 SW-480” value in experiment [2] was “Ca. 0.5 μg/ml”.

Turning to `CC(C)C[C@@H](C=O)NC(=O)[C@H](CC(C)C)NC(=O)[C@H](CC(C)C)NC(=O)OCc1ccccc1` [MG132] (Cbz-Leu-Leu-Leu-aldehyde), in experiment [3], the “apoptosis in p27 wildtype MEF” value is “same response”. Besides, in experiment [4], the “apoptosis in p27 knockout MEF” value is “same response”.

(Values after patent US8217071B2, “Use of inhibitors of the degradation of p27, in particular Argyrin and derivatives thereof, for the treatment of proliferative diseases” (Helmholtz Zentrum für Infektionsforschung GmbH, priority 2007, dated 2012).)
